We go through twelve molecules from patent US7892312B2, “Nitrification inhibitor and soil improver and fertilizer containing the same” (priority 2005, dated 2011).

For the assay, the system named is Nitrosomonas europaea IF014298. In words: in-vitro nitrification bacteria biological luminescence test. The assay is classed as cell-based. On the procedure:
Observation was conducted using in-vitro nitrification bacteria. Explanation is first made of preparation of suspension of the nitrification bacteria used for observation.
The nitrification bacteria (Nitrosomonas europaea IF014298. See Non-Patent Reference 4.) with a bacteria-origin luciferase gene (luxAB) introduced therein was aerobically cultivated in P culture media containing 25 mg/1000 cm^3 of kanamycin at 30° C. for 7-9 days, and after washing, suspended in fresh P culture media, thereby nitrification bacteria suspension was prepared. This nitrification bacteria suspension was kept in the dark place for 30 minutes or longer before experiment.
The composition of P culture media consists of 2.5 g of (NH4)2SO4, 0.7 g of KH2PO4, 13.5 g of Na2HPO4, 0.5 g of NaHCO3, 100 mg of MgSO4-7H2O, 5 mg of CaCl2-2H2O, 1 mg of Fe-EDTA, and 1000 cm^3 of water, and its pH was 8.0.
Nitrification function was evaluated by, after mixing in-vitro the aqueous solution of nitrification bacteria suspension consisting of 0.25 cm^3 of said nitrification bacteria suspension and 0.2 cm^3 of water and 0.01 cm^3 of the sample solution of each Example and Comparative Example, measuring biological luminescence accompanying nitrification reaction during cultivation at 15° C. for 30 minutes using a luminometer (Turner Designs, TD20/20). […] Therefore, the luminescence of the case where a sample solution of each Example and Comparative Example is added to the aqueous solution of nitrification bacteria suspension divided by the luminescence of the case of aqueous bacteria suspension without addition of a sample solution of each Example and Comparative Example was defined as nitrification-inhibitory ratio.
The concentration of sample solutions of each Example and Comparative Example in this case was 20 ppm.
Measurement was conducted as mentioned above with the concentration of sample solutions of each Example and Comparative Example in the aqueous nitrification bacteria suspension varying 0-20 ppm.

The mark [1] stands for this setting: sample concentration 20 ppm, 15° C., 30 minutes.

Take `CCCCC/C=C\C/C=C\CCCCCCCC(=O)O` [linoleic acid]: the “80% inhibition concentration (concentration at which nitrification-inhibitory ratio was 80%)” value was “about 16 ppm”. For the same molecule, the nitrification-inhibitory ratio (sample concentration 8 ppm) turned out to be 40%. Moreover, under “sample concentration 12 ppm”, the nitrification-inhibitory ratio is reported as 65%. The nitrification-inhibitory ratio (sample concentration 16 ppm) is 90%. Under setting [1], the nitrification-inhibitory ratio was determined as 95%.

As to `CCCCC/C=C\C/C=C\CCCCCCCC(=O)OCC` [ethyl linoleate, reference compound], the “inhibition of nitrification reaction (in words)” value (“inhibition … (in words)” for short) (sample concentration 20 ppm) is reported as “not inhibited”.

In the case of `CCCCC/C=C\C/C=C\CCCCCCCC(=O)OC` [methyl linoleate], the “80% inhibition concentration (concentration at which nitrification-inhibitory ratio was 80%)” value was ~8 ppm. Where the note is “sample concentration 8 ppm”, the nitrification-inhibitory ratio is recorded as 80%. For the same molecule, the nitrification-inhibitory ratio (sample concentration 12 ppm) worked out at 90%. For the setting “sample concentration 16 ppm”, the nitrification-inhibitory ratio is listed as 92%. For the same molecule, under setting [1], the nitrification-inhibitory ratio was 95%.

On to `CCCCCCCC/C=C\CCCCCCCC(=O)O` [oleic acid, reference compound], for which the “inhibition … (in words)” value (sample concentration 20 ppm) was “not inhibited”.

For `CCCCC/C=C\C/C=C\C/C=C\C/C=C\CCCC(=O)O` [arachidonic acid, reference compound], the “inhibition … (in words)” value (sample concentration 20 ppm) was “not inhibited”.

Regarding `CCCCC/C=C\C/C=C\C/C=C\CCCCC(=O)O` [γ-linolenic acid], the “80% inhibition concentration (concentration at which nitrification-inhibitory ratio was 80%)” value was “about 16 ppm”. Besides, the nitrification-inhibitory ratio (sample concentration 8 ppm) worked out at 30%. Also, the nitrification-inhibitory ratio (sample concentration 12 ppm) is given as 72%. Besides, the nitrification-inhibitory ratio (sample concentration 16 ppm) came out at 90%. Under setting [1], the nitrification-inhibitory ratio stood at 95%.

For the molecule `CCCCCCCCCCCCCCCCCC(=O)O` [stearic acid, reference compound], the “inhibition … (in words)” value (sample concentration 20 ppm) is recorded as “not inhibited”.

For the molecule `N#CN=C(N)N` [dicyandiamide, reference compound], the “80% inhibition concentration (concentration at which nitrification-inhibitory ratio was 80%)” value was 185 ppm.

Turning to `CC/C=C\C/C=C\C/C=C\CCCCCCCC(=O)OC` [methyl α-linolenate, reference compound], the “inhibition … (in words)” value (sample concentration 20 ppm) is on record as “not inhibited”.

`CCCCCCCC/C=C\CCCCCCCC(=O)OC` [methyl oleate, reference compound]: the “inhibition … (in words)” value (sample concentration 20 ppm) is on record as “not inhibited”.

Regarding `CC/C=C\C/C=C\C/C=C\CCCCCCCC(=O)O` [α-linolenic acid], the “80% inhibition concentration (concentration at which nitrification-inhibitory ratio was 80%)” value is listed as ~12 ppm. For the same molecule, under “sample concentration 8 ppm”, the nitrification-inhibitory ratio came to 40%. The nitrification-inhibitory ratio (sample concentration 12 ppm) is reported as 80%. For the same molecule, the nitrification-inhibitory ratio (sample concentration 16 ppm) came out at 90%. The nitrification-inhibitory ratio under setting [1] came out at 95%.

`Clc1cccc(C(Cl)(Cl)Cl)n1` [nitrapyrin, 2-chloro-6-Trichloromethylpyridine, reference compound]: the “80% inhibition concentration (concentration at which nitrification-inhibitory ratio was 80%)” value is on record as 4 ppm.
